Legend:
Human alphaherpesvirus 1 [1] = assay: Antiviral activity against HSV-1 infected in Vero cells incubated for 5 days by fluorescence based microtiter plate reader assay; type: functional, organism-based; details: Human alphaherpesvirus 1, Vero, 120 h
Human alphaherpesvirus 2 [2] = assay: Antiviral activity against HSV-2 infected in Vero cells incubated for 5 days by fluorescence based microtiter plate reader assay; type: functional, organism-based; details: Human alphaherpesvirus 2, Vero, 120 h
[3] = Protein binding in guinea pig plasma assessed as unbound fraction; type: ADME, cell-free, Cavia porcellus
[4] = Protein binding in minipig plasma assessed as unbound fraction; type: ADME, cell-free, Sus scrofa domesticus; details: pig
[5] = Oral bioavailability in dog at 1 mg/kg; type: ADME, organism-based, Canis lupus familiaris; details: in vivo
[6] = Protein binding in mouse plasma assessed as unbound fraction; type: ADME, cell-free
[7] = Protein binding in dog plasma assessed as unbound fraction; type: ADME, cell-free, Canis lupus familiaris
Carbonic anhydrase 2 = Carbonic anhydrase 2 (Homo sapiens, UniProt P00918); assay: Inhibition of carbonic anhydrase 2 (unknown origin) by CO2 hydration assay
[8] = Protein binding in rat plasma assessed as unbound fraction; type: ADME, cell-free
[9] = Protein binding in rabbit plasma assessed as unbound fraction; type: ADME, cell-free, Oryctolagus cuniculus
[10] = AUC in monkey at 1 mg/kg, po; type: ADME, organism-based, Macaca mulatta; parameters: dose 1 mg/kg, route po; details: rhesus monkey, in vivo
[11] = Oral bioavailability in human at 1 mg/kg; type: ADME, organism-based; details: in vivo
[12] = Half life in rat at 1 mg/kg, po; type: ADME, organism-based; details: in vivo
[13] = AUC in dog at 1 mg/kg, po; type: ADME, organism-based, Canis lupus familiaris; parameters: dose 1 mg/kg, route po; details: in vivo
Human alphaherpesvirus 1 [14] = assay: Antiviral activity against HSV-1 McKrae infected in BALB/c mouse assessed as reduction in viral load at 50 mg/kg, po infected with virus for 35 days prior to heat stress reactivation followed by compound treatment immediately and at 12 hrs post reactivation measured after 24 hrs post reactivation; type: functional; parameters: scale not given: the % may be the effect or the level left
Human alphaherpesvirus 1 [15] = assay: Antiviral activity against HSV-1 infected in po dosed BALB/c mouse administered twice on infection day and three times daily from day 1 to 4 post infection; type: functional; details: Human alphaherpesvirus 1, 96 h, time 4 day
[16] = Oral bioavailability in human at 400 mg administered as 1 hr intravenous infusion; type: ADME, organism-based; details: in vivo
[17] = Half life in monkey at 1 mg/kg, po; type: ADME, organism-based, Macaca mulatta; details: rhesus monkey, in vivo
[18] = AUC in human at 1 mg/kg, po; type: ADME, organism-based; parameters: dose 1 mg/kg, route po; details: in vivo
Human alphaherpesvirus 2 [19] = assay: Antiviral activity against HSV-2 infected in po dosed BALB/c mouse administered twice on infection day and three times daily from day 1 to 4 post infection; type: functional; details: Human alphaherpesvirus 2, 24 h
[20] = AUC in rat at 1 mg/kg, po; type: ADME, organism-based; parameters: dose 1 mg/kg, route po; details: in vivo
[21] = Protein binding in human plasma assessed as unbound fraction; type: ADME, cell-free
[22] = Protein binding in monkey plasma assessed as unbound fraction; type: ADME, cell-free, Macaca mulatta; details: rhesus monkey
[23] = Oral bioavailability in monkey at 1 mg/kg; type: ADME, organism-based, Macaca mulatta; details: rhesus monkey, in vivo
[24] = Half life in human at 1 mg/kg, po; type: ADME, organism-based; details: in vivo
[25] = Oral bioavailability in rat at 1 mg/kg; type: ADME, organism-based; details: in vivo
[26] = Terminal elimination half life in human at […]; type: ADME, organism-based; details: in vivo, read-out: beta t1/2 (converted)
[27] = target: Voltage-gated inwardly rectifying potassium channel KCNH2 (Homo sapiens, UniProt Q12809); assay: Inhibition of human ERG expressed in HEK293 cells by whole cell patch clamp assay; type: toxicity, cell-based
Sequence of Voltage-gated inwardly rectifying potassium channel KCNH2 (Q12809 whole entry): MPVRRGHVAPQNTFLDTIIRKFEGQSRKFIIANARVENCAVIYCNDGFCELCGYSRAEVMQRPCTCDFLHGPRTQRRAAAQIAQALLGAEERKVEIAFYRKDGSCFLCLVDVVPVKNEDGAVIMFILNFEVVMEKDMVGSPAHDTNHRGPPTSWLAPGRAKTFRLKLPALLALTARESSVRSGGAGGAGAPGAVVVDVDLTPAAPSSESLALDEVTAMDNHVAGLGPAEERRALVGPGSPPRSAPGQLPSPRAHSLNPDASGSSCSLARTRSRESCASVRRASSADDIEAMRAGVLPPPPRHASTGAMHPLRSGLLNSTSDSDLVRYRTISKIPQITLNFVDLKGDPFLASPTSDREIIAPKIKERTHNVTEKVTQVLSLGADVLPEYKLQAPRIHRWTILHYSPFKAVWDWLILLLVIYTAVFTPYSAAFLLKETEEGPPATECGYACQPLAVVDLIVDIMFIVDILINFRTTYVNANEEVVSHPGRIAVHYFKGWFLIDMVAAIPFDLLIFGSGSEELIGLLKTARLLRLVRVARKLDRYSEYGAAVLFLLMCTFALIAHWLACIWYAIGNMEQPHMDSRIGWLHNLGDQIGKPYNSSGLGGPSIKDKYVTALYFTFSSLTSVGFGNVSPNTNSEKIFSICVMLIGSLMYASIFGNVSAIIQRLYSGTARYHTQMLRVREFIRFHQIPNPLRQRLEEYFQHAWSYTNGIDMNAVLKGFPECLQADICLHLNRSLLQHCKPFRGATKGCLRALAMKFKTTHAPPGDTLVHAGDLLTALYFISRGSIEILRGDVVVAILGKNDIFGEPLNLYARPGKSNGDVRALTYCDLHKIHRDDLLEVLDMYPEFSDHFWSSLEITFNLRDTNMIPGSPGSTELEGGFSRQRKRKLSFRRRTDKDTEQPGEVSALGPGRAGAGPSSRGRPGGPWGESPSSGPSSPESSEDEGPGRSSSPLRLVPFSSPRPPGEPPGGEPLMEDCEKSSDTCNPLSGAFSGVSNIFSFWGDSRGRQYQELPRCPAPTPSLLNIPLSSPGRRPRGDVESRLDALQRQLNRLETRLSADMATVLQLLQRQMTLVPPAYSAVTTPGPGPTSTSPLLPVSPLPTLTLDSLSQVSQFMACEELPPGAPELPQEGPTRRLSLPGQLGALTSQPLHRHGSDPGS

[28] = Half life in dog at 1 mg/kg, po; type: ADME, organism-based, Canis lupus familiaris; details: in vivo
[29] = Octanol/water partition coefficient, log P of the compound; type: physicochemical
[30] = Oral bioavailability in rat; type: ADME, organism-based; details: in vivo
[31] = Oral bioavailability in monkey; type: ADME, organism-based, Macaca mulatta; details: rhesus monkey, in vivo
[32] = Oral bioavailability in human at 350 mg administered as 1 hr intravenous infusion once a week and measured upto 24 hrs; type: ADME, organism-based; details: in vivo
[33] = Oral bioavailability in dog; type: ADME, organism-based, Canis lupus familiaris; details: in vivo

Cc1nc(N(C)C(=O)Cc2ccc(-c3ccccc3)cc2)sc1S(=O)(=O)NCCO
IC50 (Human alphaherpesvirus 1 [1]): 0.75 nM | IC50 (Human alphaherpesvirus 2 [2]): 5 nM

Cc1nc(N(C)C(=O)Cc2ccc(-c3ccccn3)cc2)sc1S(N)(=O)=O
Fu [3]: 5.9% | Fu [4]: 2.5% | bioavailability [5]: 83% | Fu [6]: 0.97% | Fu [7]: 1% | IC50 (Carbonic anhydrase 2): 2000 nM | Fu [8]: 1.2% | Fu [9]: 3.4% | AUC [10]: 39500 ng·h/mL | F [11]: 73% | t1/2 [12]: 5 h | AUC [13]: 54200 ng·h/mL | Activity (Human alphaherpesvirus 1 [14]): 32% | ED50 (Human alphaherpesvirus 1 [15]): 22 mg/kg | bioavailability [16]: 60% | t1/2 [17]: 30 h | AUC [18]: 90800 ng·h/mL | ED50 (Human alphaherpesvirus 2 [19]): 16 mg/kg | AUC [20]: 12900 ng·h/mL | Fu [21]: 2.7% | Fu [22]: 0.75% | F [23]: 63% | half-life [24]: 60 h | bioavailability [25]: 65% | IC50 (Human alphaherpesvirus 1 [1]): 20 nM | half-life [26]: 60 h | IC50 (Human alphaherpesvirus 2 [2]): 16 nM | IC50 [27]: 160000 nM | t1/2 [28]: 22 h

CNS(=O)(=O)c1sc(N(C)C(=O)Cc2ccc(-c3ccccc3)cc2)nc1C
IC50 (Human alphaherpesvirus 1 [1]): 0.5 nM | IC50 (Human alphaherpesvirus 2 [2]): 50 nM

Cc1nc(N(C)C(=O)Cc2ccc(-n3cccn3)cc2)sc1S(N)(=O)=O
IC50 (Human alphaherpesvirus 1 [1]): 10 nM | IC50 (Human alphaherpesvirus 2 [2]): 100 nM

Cc1nc(N(C)C(=O)Cc2ccc(-c3ccccc3)cc2)sc1S(N)(=O)=O
IC50 (Human alphaherpesvirus 1 [1]): < 0.05 nM | IC50 (Human alphaherpesvirus 2 [2]): 5 nM

CNS(=O)(=O)c1ccc2c(c1)N(C(=O)Nc1ccc(N3CCCC3)cc1)C(C)C2 (centres undefined)
IC50 (Human alphaherpesvirus 1 [1]): 25 nM | IC50 (Human alphaherpesvirus 2 [2]): 40 nM

Cc1ccc(F)cc1-c1ccc(CC(=O)N(C)c2nc(C)c(S(N)(=O)=O)s2)cc1
IC50 (Human alphaherpesvirus 1 [1]): 100 nM | IC50 (Human alphaherpesvirus 2 [2]): 125 nM

CC1Cc2ccc(S(N)(=O)=O)cc2N1C(=O)Nc1ccc(-c2ccccc2)cc1 (centres undefined)
IC50 (Human alphaherpesvirus 1 [1]): 10 nM | IC50 (Human alphaherpesvirus 2 [2]): 60 nM

Cc1nc(N(C)C(=O)Cc2ccc(-c3ccccc3)cc2)sc1S(=O)(=O)NCCN
IC50 (Human alphaherpesvirus 1 [1]): 100 nM

COc1ccccc1-c1ccc(CC(=O)N(C)c2nc(C)c(S(N)(=O)=O)s2)cc1
IC50 (Human alphaherpesvirus 1 [1]): 2 nM | IC50 (Human alphaherpesvirus 2 [2]): 0.05 nM

Cc1nc(N(C)C(=O)Cc2ccc(-c3c(C)noc3C)cc2)sc1S(N)(=O)=O
IC50 (Human alphaherpesvirus 1 [1]): > 5 nM

CC1Cc2ccc(S(=O)(=O)NC3CC3)cc2N1C(=O)Nc1ccc(-c2ccccc2)cc1 (centres undefined)
IC50 (Human alphaherpesvirus 1 [1]): 50 nM | IC50 (Human alphaherpesvirus 2 [2]): 150 nM

Cc1nc(NC(=O)Nc2ccc(N3CCOCC3)cc2)sc1S(=O)(=O)N(C)C
IC50 (Human alphaherpesvirus 1 [1]): 2000 nM | IC50 (Human alphaherpesvirus 2 [2]): 4000 nM

Cc1nc(N(C)C(=O)Nc2ccc(-c3ccccc3)cc2)sc1S(=O)(=O)NC1CC1
IC50 (Human alphaherpesvirus 1 [1]): 20 nM | IC50 (Human alphaherpesvirus 2 [2]): 100 nM

CS(=O)(=O)O.Cc1nc(N(C)C(=O)Cc2ccc(-c3ccccn3)cc2)sc1S(N)(=O)=O.O
logP [29]: 1.745

Cc1nc(N(C)C(=O)Cc2ccc(-c3ccccc3)cc2)sc1S(=O)(=O)NCC(F)(F)F
IC50 (Human alphaherpesvirus 1 [1]): 50 nM | IC50 (Human alphaherpesvirus 2 [2]): 150 nM

COc1ccc(F)cc1-c1ccc(CC(=O)N(C)c2nc(C)c(S(N)(=O)=O)s2)cc1
IC50 (Human alphaherpesvirus 1 [1]): 0.25 nM | IC50 (Human alphaherpesvirus 2 [2]): < 0.05 nM

Cc1nc(C(C)C(=O)Nc2ccc(-c3ccccc3)cc2)sc1S(N)(=O)=O (centres undefined)
IC50 (Human alphaherpesvirus 1 [1]): 50 nM | IC50 (Human alphaherpesvirus 2 [2]): 10 nM

Cc1nc(N(C)C(=O)Cc2ccc(-c3cccnc3)cc2)sc1S(N)(=O)=O
IC50 (Human alphaherpesvirus 1 [1]): 5 nM | IC50 (Human alphaherpesvirus 2 [2]): 5 nM

Cc1nc(N(C)C(=O)Nc2ccc(N3CCOCC3)cc2)sc1S(=O)(=O)N(C)C
IC50 (Human alphaherpesvirus 1 [1]): 750 nM | IC50 (Human alphaherpesvirus 2 [2]): 1500 nM

CNS(=O)(=O)c1sc(N(C)C(=O)Nc2ccc(-c3ccccc3)cc2)nc1C
IC50 (Human alphaherpesvirus 1 [1]): 1 nM | IC50 (Human alphaherpesvirus 2 [2]): 5 nM

Nc1nc2c(ncn2COCCO)c(=O)[nH]1 [ACYCLOVIR]
bioavailability [30]: 65% | bioavailability [31]: 63% | ED50 (Human alphaherpesvirus 2 [19]): 0.5 mg/kg | bioavailability [32]: 54% | bioavailability [33]: 83%

Nc1nc2c(ncn2CCC(CO)CO)c(=O)[nH]1 [PENCICLOVIR]
bioavailability [16]: 60%

CC(C)[C@H](N)C(=O)OCCOCn1cnc2c(=O)nc(N)[nH]c21 [VALACYCLOVIR]
ED50 (Human alphaherpesvirus 1 [15]): 17 mg/kg | ED50 (Human alphaherpesvirus 2 [19]): 14 mg/kg

From ChEMBL document CHEMBL5108063, “Discovery, Chemistry, and Preclinical Development of Pritelivir, a Novel Treatment Option for Acyclovir-Resistant Herpes Simplex Virus Infections” (J Med Chem, 2022)
